Data published in patent publication US20070185020A1, “Methods and compositions for treating disorders of the extracellular matrix” (priority 2003, published 2007).

Tests used:
CDA1 [1] = experiment: CDA1 expression in kidney after angiotensin II infusion (immunohistochemistry); format: in vivo, rat
Experimental: Ang II was continuously infused into rats by subcutaneously inserted minipump for 3 days or 14 days at both pressor (60 ng/min) and non-pressor doses (6 ng/min) in eight week old male Sprague Dawley (SD) rats (Cao et al Z; The angiotensin type 2 receptor is expressed in adult rat kidney and promotes cellular proliferation and apoptosis. Kidney int. 2000; 58:2437-2451).
CDA1 staining was performed using a rabbit antihuman CDA1 serum (Chai et al, 2001) in paraffin embedded sections. In brief, following dewaxing, paraffin embedded sections were treated in a microwave oven at low power for 10 minutes in 10 mmol/L sodium citrate buffer (pH 6.0). Endogenous peroxidase was inactivated using 3% hydrogen peroxide (H2O2) in methanol for 20 minutes. The sections were blocked with protein block agent for 20 minutes. The sections were incubated with rabbit antihuman CDA1 serum for 2 hour at room temperature. Biotinylated goat anti-rabbit immunogloblulin (DAKO A/S) was used as a second antibody, followed by avidin biotin horseradish peroxidase complex (ABC Elite kit, Victor Laboratories, Burlingame, Calif.). Detection was accomplished by reaction with 3,3′-diaminobenzidine tetrahydrochloride (DAB, Sigma Chemical Co., St Louis, Mo.) (Cao Z et al. The angiotensin type 2 receptor is expressed in adult rat kidney and promotes cellular proliferation and apoptosis. Kidney Int. 2000; 58:2437-2451.

CDA1 [2] = experiment: CDA1 expression and fibrosis in the remnant kidney following subtotal nephrectomy (STNx); format: in vivo, rat; conditions: preliminary data
Experimental: Subtotal nephrectomy (STNx) were performed by right nephrectomy, followed by infarction of approximately two-thirds of the left kidney with selective ligation of all but one extrarenal branch of the left renal artery (CIA40). Anaesthesia was achieved by intraperitoneal injection of pentobarbitone sodium (60 mg/kg). Sham operated rats were used as controls. After operation, the animals were sacrificed at 1, 2, 4, 8 and 12 week and tissue collected for assessment of CDA1 expression and fibrotic growth factors as well as matrix proteins. CDA1 staining was performed using a rabbit antihuman CDA1 serum (Chai et al, 2001) in paraffin embedded sections. In brief, following dewaxing, paraffin embedded sections were treated in a microwave oven at low power for 10 minutes in 10 mmol/L sodium citrate buffer (pH 6.0). Endogenous peroxidase was inactivated using 3% hydrogen peroxide (H2O2) in methanol for 20 minutes. The sections were blocked with protein block agent for 20 minutes. The sections were incubated with rabbit antihuman CDA1 serum for 2 hour at room temperature. Biotinylated goat anti-rabbit immunogloblulin (DAKO A/S) was used as a second antibody, followed by avidin biotin horseradish peroxidase complex (ABC Elite kit, Victor Laboratories, Burlingame, Calif.). […]

CDA1 [3] = conditions: in vitro; reported by other workers; cited from earlier work

In the case of “angiotensin II (DRVYIHPF; Angiotensin-2; UniProt P01015 25-32, looked up) [Ang II, peptide hormone infused into rats by minipump to stimulate CDA1 expression]”, the “CDA1 expression after angiotensin II infusion” value (CDA1 [1]; immunohistochemical staining, proximal tubules, subcutaneous minipump infusion in Sprague Dawley rats) is reported as “increased CDA1 expression”.
In the case of `CCCCC(=O)N(Cc1ccc(-c2ccccc2-c2nnn[nH]2)cc1)[C@H](C(=O)O)C(C)C` [valsartan], the “Effect on increased CDA1 expression following Ang II infusion” value (CDA1 [1]; treatment with AT1 receptor antagonist, data not shown) is reported as “prevented”, the “Effect on cell injury in remnant kidney” value (CDA1 [2]) is reported as “less cell injury” and the “Effect on CDA1 expression in remnant kidney” value (CDA1 [2]; FIG. 3B) is reported as “attenuation of CDA1 expression”.
For “TGF β1: growth factor; CDA1 described as a TGF β1 target gene”, the CDA1 expression (CDA1 [3]) is listed as “increased”.
